*1 amine or outer side, *2 acyl side, *3 side chain or, on linkers, in order; H or OH if unused. Where a SMILES comes first, the peptide text is derived from it. Bridges are numbered along the chain shown (N, C = ends). The star is where a group is joined. C20 diacid = O=C(O)CCCCCCCCCCCCCCCCCCC(=O)*; C18 diacid = O=C(O)CCCCCCCCCCCCCCCCC(=O)*; γGlu = O=C(O)[C@H](CCC(=O)[*:2])N[*:1]; Adipoyl = O=C(CCCCC(=O)[*:2])[*:1]; AEEA = NCCOCCOCC(=O)O
Biological target: T1, Amylin 3(a) receptor (human calcitonin receptor (CTa) and RAMP-3) (Homo sapiens, UniProt O60896+P30988)
T1 construct: expressed in transfected cells; host or cells: BHK570 cells, stably transfected with a CRE-luciferase reporter
Assay: Luciferase assay (III), BHK Amylin 3(a)//CRE-luc cells
Type: cell-based
Conditions: BHK cells with Amylin 3(a) receptor and CRE luciferase reporter, 4 hours incubation; read-out: Potency Luciferase
Summary of the method: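 Read-out is CRE-driven luciferase luminescence, taken 30 min after LucLite addition at room temperature. Compounds were incubated 4 h at 37° C in assay medium (10% FBS, 10 mM Hepes, pH 7,4). The cell line is BHK570 co-transfected with human calcitonin receptor CTa and RAMP-3, seeded overnight before use.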

T1 sequence (O60896 24-148): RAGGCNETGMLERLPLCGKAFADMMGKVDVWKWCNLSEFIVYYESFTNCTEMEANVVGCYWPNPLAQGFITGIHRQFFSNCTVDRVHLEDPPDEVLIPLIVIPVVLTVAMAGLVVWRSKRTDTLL
T1 sequence (P30988 25-474): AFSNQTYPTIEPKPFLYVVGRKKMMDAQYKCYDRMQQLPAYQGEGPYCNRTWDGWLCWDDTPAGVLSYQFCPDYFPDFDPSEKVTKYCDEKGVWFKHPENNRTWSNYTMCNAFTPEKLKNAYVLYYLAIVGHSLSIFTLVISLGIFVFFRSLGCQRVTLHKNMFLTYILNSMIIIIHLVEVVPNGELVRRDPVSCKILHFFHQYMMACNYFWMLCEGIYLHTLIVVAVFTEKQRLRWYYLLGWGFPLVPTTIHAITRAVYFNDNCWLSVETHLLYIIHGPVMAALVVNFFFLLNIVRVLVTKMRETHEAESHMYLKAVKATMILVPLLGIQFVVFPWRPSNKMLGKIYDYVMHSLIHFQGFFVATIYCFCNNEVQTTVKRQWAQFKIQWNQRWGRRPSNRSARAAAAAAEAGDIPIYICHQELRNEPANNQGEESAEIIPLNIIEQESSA

| Compound | EC50 [nM] |
| --- | --- |
| CC(C)C[C@H](NC(=O)[C@H](CCCNC(=N)N)NC(=O)[C@H](CCC(N)=O)NC(=O)[C@@H](NC(=O)[C@H](C)NC(=O)[C@@H]1CSSC[C@H](NC(=O)[C@H](CCC(=O)O)NC(=O)[C@H](CCCNC(=N)N)NC(=O)[C@H](CCC(=O)O)NC(=O)CC[C@H](NC(=O)CCCCCCCCCCCCCCCCCCC(=O)O)C(=O)O)C(=O)N[C@@H](CC(N)=O)C(=O)N[C@@H]([C@@H](C)O)C(=O)N[C@@H](C)C(=O)N[C@@H]([C@@H](C)O)C(=O)N1)[C@@H](C)O)C(=O)N[C@@H](C)C(=O)N[C@@H](CC(N)=O)C(=O)N[C@@H](Cc1ccccc1)C(=O)N[C@@H](CC(C)C)C(=O)N[C@@H](CCCNC(=N)N)C(=O)N[C@@H](Cc1c[nH]cn1)C(=O)N[C@@H](CO)C(=O)N[C@@H](CO)C(=O)N[C@@H](CC(N)=O)C(=O)N[C@@H](CC(N)=O)C(=O)N[C@@H](Cc1ccccc1)C(=O)NCC(=O)N[C@@H](C)C(=O)N1CCC[C@H]1C(=O)N[C@@H](CC(C)C)C(=O)N[C@@H](CO)C(=O)N[C@@H](CO)C(=O)N[C@H](C(=O)N[C@@H](CC(N)=O)C(=O)N[C@H](C(=O)NCC(=O)N[C@@H](CO)C(=O)N[C@@H](CC(N)=O)C(=O)N[C@H](C(=O)N[C@@H](Cc1ccc(O)cc1)C(N)=O)[C@@H](C)O)C(C)C)[C@@H](C)O [Example 46, N-alpha-[(S)-4-Carboxy-4-(19-carboxynonadecanoylamino)butyryl]-Glu-Arg-[Glu1,Arg17,Ala25,Pro26,Ser28,Ser29]-pramlintide] ({C20 diacid-γGlu}-ERECNTATCATQRLANFLRHSSNNFGAPLSSTNVGSNTY-NH2; disulfide 4-9) | 0.2 |
| CC[C@H](C)[C@H](NC(=O)[C@@H]1CCCN1C(=O)CNC(=O)[C@H](Cc1ccccc1)NC(=O)[C@H](CC(N)=O)NC(=O)[C@H](CC(N)=O)NC(=O)[C@H](CO)NC(=O)[C@H](CO)NC(=O)[C@H](Cc1c[nH]cn1)NC(=O)[C@H](Cc1c[nH]cn1)NC(=O)[C@H](CC(C)C)NC(=O)[C@H](Cc1ccccc1)NC(=O)[C@H](CC(N)=O)NC(=O)[C@H](C)NC(=O)[C@H](CC(C)C)NC(=O)[C@H](CCCNC(=N)N)NC(=O)[C@H](CCC(N)=O)NC(=O)[C@@H](NC(=O)[C@H](C)NC(=O)[C@@H]1CSSC[C@H](NC(=O)[C@H](Cc2c[nH]cn2)NC(=O)[C@H](Cc2c[nH]cn2)NC(=O)[C@H](Cc2c[nH]cn2)NC(=O)CC[C@H](NC(=O)CCCCC(=O)O)C(=O)O)C(=O)N[C@@H](CC(N)=O)C(=O)N[C@@H]([C@@H](C)O)C(=O)N[C@@H](C)C(=O)N[C@@H]([C@@H](C)O)C(=O)N1)[C@@H](C)O)C(=O)N[C@@H](CC(C)C)C(=O)N1CCC[C@H]1C(=O)N1CCC[C@H]1C(=O)N[C@H](C(=O)N[C@@H](CC(N)=O)C(=O)N[C@H](C(=O)NCC(=O)N[C@@H](CO)C(=O)N[C@@H](CC(N)=O)C(=O)N[C@H](C(=O)N[C@@H](Cc1ccc(O)cc1)C(N)=O)[C@@H](C)O)C(C)C)[C@@H](C)O [Example 61, N-alpha-[(S)-4-Carboxy-4-(5-carboxypentanoylamino)butyryl]-His-His-[His1,His17]-pramlintide] ({Adipoyl-γGlu}-HHHCNTATCATQRLANFLHHSSNNFGPILPPTNVGSNTY-NH2; disulfide 4-9) | 0.04 |
| CC[C@H](C)[C@H](NC(=O)[C@@H]1CCCN1C(=O)CNC(=O)[C@H](Cc1ccccc1)NC(=O)[C@H](CC(N)=O)NC(=O)[C@H](CC(N)=O)NC(=O)[C@H](CO)NC(=O)[C@H](CO)NC(=O)[C@H](Cc1c[nH]cn1)NC(=O)[C@H](Cc1c[nH]cn1)NC(=O)[C@H](CC(C)C)NC(=O)[C@H](Cc1ccccc1)NC(=O)[C@H](CC(N)=O)NC(=O)[C@H](C)NC(=O)[C@H](CC(C)C)NC(=O)[C@H](CCCNC(=N)N)NC(=O)[C@H](CCC(N)=O)NC(=O)[C@@H](NC(=O)[C@H](C)NC(=O)[C@@H]1CSSC[C@H](NC(=O)[C@H](Cc2c[nH]cn2)NC(=O)CC[C@H](NC(=O)CCCCCCCCCCCCCCCCC(=O)O)C(=O)O)C(=O)N[C@@H](CC(N)=O)C(=O)N[C@@H]([C@@H](C)O)C(=O)N[C@@H](C)C(=O)N[C@@H]([C@@H](C)O)C(=O)N1)[C@@H](C)O)C(=O)N[C@@H](CC(C)C)C(=O)N1CCC[C@H]1C(=O)N1CCC[C@H]1C(=O)N[C@H](C(=O)N[C@@H](CC(N)=O)C(=O)N[C@H](C(=O)NCC(=O)N[C@@H](CO)C(=O)N[C@@H](CC(N)=O)C(=O)N[C@H](C(=O)N[C@@H](Cc1ccc(O)cc1)C(N)=O)[C@@H](C)O)C(C)C)[C@@H](C)O [Example 32, N-alpha-[(S)-4-Carboxy-4-(17-carboxyheptadecanoylamino)butyryl]-[His1,His17]-pramlintide] ({C18 diacid-γGlu}-HCNTATCATQRLANFLHHSSNNFGPILPPTNVGSNTY-NH2; disulfide 2-7) | 0.08 |
| CC[C@H](C)[C@H](NC(=O)[C@@H]1CCCN1C(=O)CNC(=O)[C@H](Cc1ccccc1)NC(=O)[C@H](CC(N)=O)NC(=O)[C@H](CC(N)=O)NC(=O)[C@H](CO)NC(=O)[C@H](CO)NC(=O)[C@H](Cc1c[nH]cn1)NC(=O)[C@H](CCCNC(=N)N)NC(=O)[C@H](CC(C)C)NC(=O)[C@H](Cc1ccccc1)NC(=O)[C@H](CC(N)=O)NC(=O)[C@H](C)NC(=O)[C@H](CC(C)C)NC(=O)[C@H](CCCNC(=N)N)NC(=O)[C@H](CCC(N)=O)NC(=O)[C@@H](NC(=O)[C@H](C)NC(=O)[C@@H]1CSSC[C@H](NC(=O)[C@H](CCCNC(=N)N)NC(=O)[C@H](Cc2c[nH]cn2)NC(=O)[C@H](Cc2c[nH]cn2)NC(=O)COCCOCCNC(=O)CC[C@H](NC(=O)CCCCCCCCCCCCCCCCCCC(=O)O)C(=O)O)C(=O)N[C@@H](CC(N)=O)C(=O)N[C@@H]([C@@H](C)O)C(=O)N[C@@H](C)C(=O)N[C@@H]([C@@H](C)O)C(=O)N1)[C@@H](C)O)C(=O)N[C@@H](CC(C)C)C(=O)N1CCC[C@H]1C(=O)N1CCC[C@H]1C(=O)N[C@H](C(=O)N[C@@H](CC(N)=O)C(=O)N[C@H](C(=O)NCC(=O)N[C@@H](CO)C(=O)N[C@@H](CC(N)=O)C(=O)N[C@H](C(=O)N[C@@H](Cc1ccc(O)cc1)C(N)=O)[C@@H](C)O)C(C)C)[C@@H](C)O [Example 57, N-alpha-[2-(2-{2-[4-(S)-Carboxy-4-(19-carboxynonadecanoylamino)butyrylamino]ethoxy}ethoxy)acetyl]-His-His-[Arg1,Arg17]-pramlintide] ({C20 diacid-γGlu-AEEA}-HHRCNTATCATQRLANFLRHSSNNFGPILPPTNVGSNTY-NH2; disulfide 4-9) | 0.3 |

The remaining molecules from weak to strong by EC50, led by results:

| EC50 [nM] | Compound |
| --- | --- |
| 0.3 | CC[C@H](C)[C@H](NC(=O)[C@@H]1CCCN1C(=O)CNC(=O)[C@H](Cc1ccccc1)NC(=O)[C@H](CC(N)=O)NC(=O)[C@H](CC(N)=O)NC(=O)[C@H](CO)NC(=O)[C@H](CO)NC(=O)[C@H](Cc1c[nH]cn1)NC(=O)[C@H](Cc1c[nH]cn1)NC(=O)[C@H](CC(C)C)NC(=O)[C@H](Cc1ccccc1)NC(=O)[C@H](CC(N)=O)NC(=O)[C@H](C)NC(=O)[C@H](CC(C)C)NC(=O)[C@H](CCCNC(=N)N)NC(=O)[C@H](CCC(N)=O)NC(=O)[C@@H](NC(=O)[C@H](C)NC(=O)[C@@H]1CSSC[C@H](NC(=O)[C@H](CCCNC(=N)N)NC(=O)CC[C@H](NC(=O)CCCCCCCCCCCCCCCCCCC(=O)O)C(=O)O)C(=O)N[C@@H](CC(N)=O)C(=O)N[C@@H]([C@@H](C)O)C(=O)N[C@@H](C)C(=O)N[C@@H]([C@@H](C)O)C(=O)N1)[C@@H](C)O)C(=O)N[C@@H](CC(C)C)C(=O)N1CCC[C@H]1C(=O)N1CCC[C@H]1C(=O)N[C@H](C(=O)N[C@@H](CC(N)=O)C(=O)N[C@H](C(=O)NCC(=O)N[C@@H](CO)C(=O)N[C@@H](CC(N)=O)C(=O)N[C@H](C(=O)N[C@@H](Cc1ccc(O)cc1)C(N)=O)[C@@H](C)O)C(C)C)[C@@H](C)O [Example 6, N-alpha-[(S)-4-Carboxy-4-(19-carboxynonadecanoylamino)butyryl]-[Arg1,His17]-pramlintide] ({C20 diacid-γGlu}-RCNTATCATQRLANFLHHSSNNFGPILPPTNVGSNTY-NH2; disulfide 2-7) |
| 0.05 | CC[C@H](C)[C@H](NC(=O)[C@@H]1CCCN1C(=O)CNC(=O)[C@H](Cc1ccccc1)NC(=O)[C@H](CC(N)=O)NC(=O)[C@H](CC(N)=O)NC(=O)[C@H](CO)NC(=O)[C@H](CO)NC(=O)[C@H](Cc1c[nH]cn1)NC(=O)[C@H](Cc1c[nH]cn1)NC(=O)[C@H](CC(C)C)NC(=O)[C@H](Cc1ccccc1)NC(=O)[C@H](CC(N)=O)NC(=O)[C@H](C)NC(=O)[C@H](CC(C)C)NC(=O)[C@H](CCCNC(=N)N)NC(=O)[C@H](CCC(N)=O)NC(=O)[C@@H](NC(=O)[C@H](C)NC(=O)[C@@H]1CSSC[C@H](NC(=O)[C@H](Cc2c[nH]cn2)NC(=O)[C@H](CCCNC(=N)N)NC(=O)[C@H](Cc2c[nH]cn2)NC(=O)CC[C@H](NC(=O)CCCCCCCCCCCCCCCCCCC(=O)O)C(=O)O)C(=O)N[C@@H](CC(N)=O)C(=O)N[C@@H]([C@@H](C)O)C(=O)N[C@@H](C)C(=O)N[C@@H]([C@@H](C)O)C(=O)N1)[C@@H](C)O)C(=O)N[C@@H](CC(C)C)C(=O)N1CCC[C@H]1C(=O)N1CCC[C@H]1C(=O)N[C@H](C(=O)N[C@@H](CC(N)=O)C(=O)N[C@H](C(=O)NCC(=O)N[C@@H](CO)C(=O)N[C@@H](CC(N)=O)C(=O)N[C@H](C(=O)N[C@@H](Cc1ccc(O)cc1)C(N)=O)[C@@H](C)O)C(C)C)[C@@H](C)O [Example 72, N-alpha-[(S)-4-Carboxy-4-(19-carboxynonadecanoylamino)butyryl]-His-Arg-[His1,His17]-pramlintide] ({C20 diacid-γGlu}-HRHCNTATCATQRLANFLHHSSNNFGPILPPTNVGSNTY-NH2; disulfide 4-9) |
